This passage reports EC50 results from BindingDB's records for doi:10.1016/j.ejmech.2021.113585 (Fudan University, 2021).

The assay can be described thus: Agonist activity at RORgammat in C57 mouse CD4+ T cells assessed as induction of Th17 cells differentiation by measuring increase in IL17 production measured after 4 days by flow cytometry analysis. Background: In flow cytometry, cells or beads pass a laser one at a time.
On to `CC(=O)N1CCN(c2ccc3c(c2)CCN(S(=O)(=O)N(C)Cc2ccccc2C(F)(F)F)C3)CC1`, for which the EC50 was determined as 1120 nM.

Take `CC(=O)N1CCN(c2ccc3c(c2)CCN(S(=O)(=O)N(C)Cc2ccccc2Cl)C3)CC1`: the EC50 was 230 nM.

As for `CC(=O)N1CCN(c2ccc3c(c2)CCN(S(=O)(=O)N(C)Cc2c(F)cccc2Cl)C3)CC1`, the EC50 came to 220 nM.

The term EC50 denotes the concentration at which the effect is half-maximal.
